Values joined by “and” are separate entries in the source; they are usually repeats but may differ in a detail not shown here. Equal entries are not always repeated.
Columns and labels:
[1] = cited from earlier work
[2] = system: micronuclei in interphase cells; assay: In vitro micronucleus (IVMN) test
[3] = female, Balb/c, mouse, in vivo
NLuc C. parvum = system: NLuc C. parvum; design: method as in PMID 30830766; details: cited from earlier work
C. parvum = details: bovine, in vivo
[4] = system: NLuc-expressing C. parvum; assay: NLuc C. parvum IFNγ-KO mouse infection model, oocyst shedding; assay type: in vivo
[5] = dog, in vivo
5-HT2B = target: T1, 5-HT2B (Homo sapiens, UniProt P41595); assay: Cerep binding assay; details: agonist radioligand, mean, read-out: % inhibition of control specific binding
T1 construct: Cerep (Eurofins, France)

[6] = system: NLuc-expressing C. parvum; design: method as in PMID 30830766; details: 8 mg/kg QD x 5 PO, 20 days p.i.; cited from earlier work
[7] = system: A-375, Hs294T, MEWO, and Colo678 carcinoma cell lines
[8] = Mouse plasma, brain and GI exposure PK, Balb/c, 30 mg/kg PO; details: Brains, 0.5 hr, individual samples
[9] = system: C. parvum U AZ Laboratory isolate; assay: microbe, parasite or virus in culture; assay type: cell-based, Cryptosporidium parvum
C. hominis TU502 isolate = assay: Calibr high-content imaging Cryptosporidium panel; assay type: cell-based, Cryptosporidium hominis
HCT-8 cells = assay: HCT-8 host cell count (Calibr); details: read-out: HCT-8 Cell Count CC50; host cells infected with Sterling oocysts
[10] = system: C. parvum Bunch Grass Farms isolate; assay: Calibr high-content imaging Cryptosporidium panel; assay type: cell-based, Cryptosporidium parvum; details: Calibr Crypto Panel 2
HEK293T = assay: 72H HEK293T Cytotoxicity; assay type: cell-based
[11] = system: C. parvum Zambriski Laboratory isolate; assay: Calibr high-content imaging Cryptosporidium panel; assay type: cell-based, Cryptosporidium parvum; details: Calibr Crypto Panel 2

T1 sequence (P41595 whole entry): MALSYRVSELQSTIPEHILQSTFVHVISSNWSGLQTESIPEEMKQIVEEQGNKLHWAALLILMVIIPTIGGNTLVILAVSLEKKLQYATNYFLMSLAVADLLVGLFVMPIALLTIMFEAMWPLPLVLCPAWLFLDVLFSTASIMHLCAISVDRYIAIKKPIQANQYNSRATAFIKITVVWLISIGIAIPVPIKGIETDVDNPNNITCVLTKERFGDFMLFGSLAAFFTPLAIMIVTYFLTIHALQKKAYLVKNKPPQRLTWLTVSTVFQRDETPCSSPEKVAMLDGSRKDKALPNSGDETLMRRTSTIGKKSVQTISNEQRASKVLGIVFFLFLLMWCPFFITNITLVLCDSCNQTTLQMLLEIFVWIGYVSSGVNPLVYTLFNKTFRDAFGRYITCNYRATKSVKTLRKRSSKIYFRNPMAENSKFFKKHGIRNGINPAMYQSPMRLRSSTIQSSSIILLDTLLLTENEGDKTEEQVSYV

For `CC(C)(CO)Cn1nc(-c2ccc3cc(OC4CC4)ccc3c2)c(C(N)=O)c1N` [BKI-1708], the “maximum tolerated single dose” value [1] is listed as 400 mg/kg, the IVMN test result [2] is listed as “no change in the frequency of micronucleated cells” and the “postnatal mortality (%)” value [3] is listed as 0%. The EC50 (NLuc C. parvum) was 0.4 µM, the Clinical scores (C. parvum) was 10.5 and the “Weights, %∆” value (C. parvum) was 6.329% and 8.511% and 5.263%. The “Weights, %∆, mean” value (C. parvum) was 6.701%, the efficacy ([4]; 8 mg/kg QD x 3) was “failed to recapitulate efficacy” and the “log reduction in oocyst shedding” value ([4]; 15 mg/kg x 2 days, day 20 p.i.) was 2.1 log. For the same molecule, the “log reduction vs peak infection levels of untreated control” value ([4]; 60, 30 and 15 mg/kg QD x 3, up to 20 days p.i.) was over 4 log, the “day p.i. oocyst shedding reached LoD” value ([4]; BKI-1708 15 mg/kg QD x 3 PO) was at most 13 days and the “day p.i. oocyst shedding reached LoD” value ([4]; BKI-1708 30 mg/kg QD x 3 PO) was at most 13 days. The “day p.i. oocyst shedding below LoD” value ([4]; BKI-1708 60 mg/kg QD x 3 PO) was at most 10 days, the “log reduction in oocyst shedding” value ([4]; single 15 mg/kg dose, 13 days p.i.) was 1.4 log and the “log reduction in oocyst shedding” value ([4]; single 15 mg/kg dose, 20 days p.i.) was 1.7 log. The “log reduction in oocyst shedding” value ([4]; single 60 mg/kg dose, 13 days p.i.) was 3.5 log, the “plasma level without appreciable effect on MAP, HR, contractility, SVR, CO, QT, QRS, PR” value [5] was 95 µM and the inhibition at 10 µM (5-HT2B) was 24.3%. The “log reduction in oocyst shedding over untreated controls” value [6] was over 3 log.
In the case of `CC(=O)Nc1cccc(-n2c(=O)n(C3CC3)c(=O)c3c(Nc4ccc(I)cc4F)n(C)c(=O)c(C)c32)c1` [Trametinib], the “inhibitory concentration in MEK1 proliferation-dependent cell lines” value [7] is reported as 7 to 60 nM.
For `CC1(C)Cn2nc(-c3ccc4cc(OC5CC5)ccc4c3)c(C(N)=O)c2NC1O` (stereo not shown) [compound 1862], the “RLU Raw” value ([4]; 8 mg/kg x 3 d, Day 6) was 1384352 RLU, the “RLU Raw” value ([4]; 8 mg/kg x 3 d, Day 7) was 821824 RLU and the “RLU Raw” value ([4]; 8 mg/kg x 3 d, Day 8) was 1485152 RLU. For the same molecule, the “RLU Raw” value ([4]; 8 mg/kg x 3 d, Day 9) was 162144 RLU, the “RLU Raw” value ([4]; 8 mg/kg x 3 d, Day 10) was 41552 RLU and the “RLU Raw” value ([4]; 8 mg/kg x 3 d, Day 13) was 6176 RLU. The “RLU Raw” value ([4]; 8 mg/kg x 3 d, Day 15) was 4992 RLU, the “RLU Raw” value ([4]; 8 mg/kg x 3 d, Day 17) was 608 RLU and the “RLU Raw” value ([4]; 8 mg/kg x 3 d, Day 20) was 1296 RLU. The “RLU standardized by fecal weight (Normalized)” value (shortened to “RLU standardized … (Normalized)”) ([4]; 8 mg/kg x 3 d, day 6 p.i.) was 226943 RLU, the “RLU standardized … (Normalized)” value ([4]; 8 mg/kg x 3 d, day 7 p.i.) was 75397 RLU and the “RLU standardized … (Normalized)” value ([4]; 8 mg/kg x 3 d, day 8 p.i.) was 146320 RLU. For the same molecule, the “RLU standardized … (Normalized)” value ([4]; 8 mg/kg x 3 d, day 9 p.i.) was 15516 RLU, the “RLU standardized … (Normalized)” value ([4]; 8 mg/kg x 3 d, day 10 p.i.) was 4240 RLU and the “RLU standardized … (Normalized)” value ([4]; 8 mg/kg x 3 d, day 13 p.i.) was 468 RLU. For the same molecule, the “RLU standardized … (Normalized)” value ([4]; 8 mg/kg x 3 d, day 15 p.i.) was 409 RLU, the “RLU standardized … (Normalized)” value ([4]; 8 mg/kg x 3 d, day 17 p.i.) was 61 RLU and the “RLU standardized … (Normalized)” value ([4]; 8 mg/kg x 3 d, day 20 p.i.) was 214 RLU. For the same molecule, the “RLU Raw” value ([4]; 15 mg/kg x 3 d, Day 6) was 1490624 RLU, the “RLU Raw” value ([4]; 15 mg/kg x 3 d, Day 7) was 876560 RLU and the “RLU Raw” value ([4]; 15 mg/kg x 3 d, Day 8) was 670544 RLU. For the same molecule, the “RLU Raw” value ([4]; 15 mg/kg x 3 d, Day 9) was 9856 RLU, the “RLU Raw” value ([4]; 15 mg/kg x 3 d, Day 10) was 2928 RLU and the “RLU Raw” value ([4]; 15 mg/kg x 3 d, Day 13) was 512 RLU. For the same molecule, the “RLU Raw” value ([4]; 15 mg/kg x 3 d, Day 15) was 400 RLU, the “RLU Raw” value ([4]; 15 mg/kg x 3 d, Day 17) was 288 RLU and the “RLU Raw” value ([4]; 15 mg/kg x 3 d, Day 20) was 192 RLU. The “RLU standardized … (Normalized)” value ([4]; 15 mg/kg x 3 d, day 6 p.i.) was 200084 RLU, the “RLU standardized … (Normalized)” value ([4]; 15 mg/kg x 3 d, day 7 p.i.) was 110259 RLU and the “RLU standardized … (Normalized)” value ([4]; 15 mg/kg x 3 d, day 8 p.i.) was 111757 RLU. For the same molecule, the “RLU standardized … (Normalized)” value ([4]; 15 mg/kg x 3 d, day 9 p.i.) was 1398 RLU, the “RLU standardized … (Normalized)” value ([4]; 15 mg/kg x 3 d, day 10 p.i.) was 284 RLU and the “RLU standardized … (Normalized)” value ([4]; 15 mg/kg x 3 d, day 13 p.i.) was 37 RLU. The “RLU standardized … (Normalized)” value ([4]; 15 mg/kg x 3 d, day 15 p.i.) was 29 RLU, the “RLU standardized … (Normalized)” value ([4]; 15 mg/kg x 3 d, day 17 p.i.) was 32 RLU and the “RLU standardized … (Normalized)” value ([4]; 15 mg/kg x 3 d, day 20 p.i.) was 66 RLU. The “RLU Raw” value ([4]; 30 mg/kg x 3 d, Day 6) was 1093968 RLU, the “RLU Raw” value ([4]; 30 mg/kg x 3 d, Day 7) was 650000 RLU and the “RLU Raw” value ([4]; 30 mg/kg x 3 d, Day 8) was 37104 RLU. For the same molecule, the “RLU Raw” value ([4]; 30 mg/kg x 3 d, Day 9) was 1536 RLU, the “RLU Raw” value ([4]; 30 mg/kg x 3 d, Day 10) was 336 RLU and the “RLU Raw” value ([4]; 30 mg/kg x 3 d, Day 13) was 208 RLU. The “RLU Raw” value ([4]; 30 mg/kg x 3 d, Day 15) was 240 RLU, the “RLU Raw” value ([4]; 30 mg/kg x 3 d, Day 17) was 2640 RLU and the “RLU Raw” value ([4]; 30 mg/kg x 3 d, Day 20) was 192 RLU. The “RLU standardized … (Normalized)” value ([4]; 30 mg/kg x 3 d, day 6 p.i.) was 163279 RLU, the “RLU standardized … (Normalized)” value ([4]; 30 mg/kg x 3 d, day 7 p.i.) was 191176 RLU and the “RLU standardized … (Normalized)” value ([4]; 30 mg/kg x 3 d, day 8 p.i.) was 11969 RLU. The “RLU standardized … (Normalized)” value ([4]; 30 mg/kg x 3 d, day 9 p.i.) was 290 RLU, the “RLU standardized … (Normalized)” value ([4]; 30 mg/kg x 3 d, day 10 p.i.) was 51 RLU and the “RLU standardized … (Normalized)” value ([4]; 30 mg/kg x 3 d, day 13 p.i.) was 29 RLU. The “RLU standardized … (Normalized)” value ([4]; 30 mg/kg x 3 d, day 15 p.i.) was 21 RLU, the “RLU standardized … (Normalized)” value ([4]; 30 mg/kg x 3 d, day 17 p.i.) was 290 RLU and the “RLU standardized … (Normalized)” value ([4]; 30 mg/kg x 3 d, day 20 p.i.) was 23 RLU. For the same molecule, the Brains concentration [8] was 0.0641 µM.
In the case of `CCOc1ccc2cc(-c3nn(CC4CCN(C)CC4)c4ncnc(N)c34)ccc2c1` [BKI-1294], the EC50 ([9]; Calibr Crypto Panel 2, 2018-06-18, read-out: Sterling Lab C. parvum Spot Count EC50) is reported as 0.468 µM, the EC90 ([9]; Calibr Crypto Panel 2, read-out: Sterling Lab C. parvum Spot Count EC90) is reported as 8.29 µM and the EC50 (C. hominis TU502 isolate; Calibr Crypto Panel 2, 2018-07-02, read-out: C. hominis Spot Count EC50) is reported as 2.82 µM. It also gave an EC90 (C. hominis TU502 isolate; Calibr Crypto Panel 2, read-out: C. hominis Spot Count EC90) of 14.8 µM, a CC50 (HCT-8 cells) of over 25 µM and an EC50 ([10]; read-out: Bunch Grass Farm C. parvum Spot Count EC50) of 2.02 µM. The EC90 ([10]; read-out: Bunch Grass Farm C. parvum Spot Count EC90) was 5.44 µM, the CC50 (HEK293T) was 22.2 µM and the EC50 ([11]; read-out: Wild C. parvum Spot Count EC50) was 0.337 µM. It also gave an EC90 ([11]; read-out: Wild C. parvum Spot Count EC90) of 27.3 µM.

Reference: PMC12310023 (PLOS Neglected Tropical Diseases, 2025)
